In patent publication US11925624B2, “Methods of administering anti-fibrotic therapy” (GENENTECH, INC., priority 2016, dated 2024):
Read-outs that look alike come from different tables or passages of the source.

Experiment: Phase 1 Part A food effect (high-fat / low-fat breakfast) on single-dose pharmacokinetics
Assay type: in vivo, human
Details: for Test/Reference ratio of LS means, AUC0-t / Test/Reference ratio of LS means, AUC0-∞ / Test/Reference ratio of LS means, Cmax: 400 mg Fed; for % AUCextrap: arithmetic mean; for Tmax / AUC(0-t) / AUC(0-inf) / Cmax / Vd/F / half-life: human, plasma, oral
Text: This study was a randomized, blinded, placebo-controlled, ascending-dose study to evaluate the safety, tolerability, and pharmacokinetic (PK) of single (Part A) and multiple (Part B) doses of Compound I in healthy subjects. In addition, the effects of a standard high-fat breakfast, standard low-fat breakfast, and pretreatment and co-administration of a proton pump inhibitor (PPI) on the tolerability and PK of a single dose of Compound I were investigated in 2 groups in Part A. All subjects received their full dose of Compound I, administered as the appropriate number of either 25 or 200 mg tablets. The high fat breakfast comprised the following: total energy: 895 kcal; total fat: 61 g; total protein: 41 g; total carbohydrate: 46 g. The low fat breakfast comprised the following: total energy: 611 kcal; total fat: 14.7 g; total protein: 20.3 g; total carbohydrate: 106.3 g.
For Group A4, doses (400 mg Compound I or placebo) during Treatment Period 1 were administered in a fasted state on the morning of Day 1. Doses in Treatment Period 2 were administered 30 minutes after starting, and within approximately 10 minutes of completing, a high-fat standard breakfast on the morning of Day 1. Doses during Treatment Period 3 were administered 30 minutes after starting, and within approximately 10 minutes of completing a low-fat standard meal on the morning of Day 1. Doses during Treatment Period 4 were administered on Day 1 after an overnight fast and following administration of a PPI (rabeprazole 20 mg) for 3 days (given as 3 daily [QD] doses, with the final PPI dose at 2 hours prior to study drug administration on Day 1). Subjects in Group A4 received the same Compound I or placebo treatment in all treatment periods, such that each subject received up to 4 single doses of Compound I or placebo.
For Group A5, doses (800 mg Compound I or placebo) during Treatment Period 1 were administered in a fasted state on the morning of Day 1, doses during Treatment Period 2 were administered 30 minutes after starting a low-fat standard breakfast on the morning of Day 1, and doses during Treatment Period 3 were administered on Day 1 after a low-fat meal and following administration of a PPI (rabeprazole 20 mg) for 3 days (given as 3 QD doses, with the final PPI dose at 2 hours prior to study drug administration on Day 1). Subjects in Group A5 received the same Compound I or placebo treatment in all treatment periods, such that each subject received up to 3 single doses of Compound I or placebo.
For Group A4, each subject participated in 3 additional treatment periods, each separated by a minimum of 7 days. Group A4 resided at the CRU from Day −1 to Day 4 of Treatment Periods 2, 3, and 4. For Group A5, each subject participated in 2 additional treatment periods, each separated by a minimum of 7 days. Group A5 resided at the CRU from Day −1 to Day 4 of Treatment Periods 2 and 3. All subjects returned for a Follow-up visit between 5 to 14 days after their final dose of study treatment.
In Part A, all doses in Treatment Period 1 were administered after an overnight fast of at least 8 hours. For the A4 cohort, in Treatment Periods 2 and 3, doses were administered 30 minutes after starting and approximately 10 minutes after completing a high- or low-fat breakfast. In Treatment Period 4, the dose was administered after an overnight fast and following administration of a PPI (PPI was comprised of 3 doses of rabeprazole 20 mg, starting on Day −2 and with the final dose 2 hours before Compound I administration on Day 1). For Group A5, doses during Treatment Period 2 were administered 30 minutes after starting and approximately 10 minutes after completing a low-fat standard breakfast on the morning of Day 1, and doses during Treatment Period 3 were administered on Day 1 after a low-fat meal and following administration of a PPI for 3 days (given as 3 QD doses, with the final PPI dose at 2 hours prior to study drug administration on Day 1).

[1] = High-fat (Test) vs 400 mg Fasted (Reference)
[2] = High-fat (Test) vs 400 mg Fed, Low-fat (Reference)
[3] = Low-fat (Test) vs 400 mg Fasted (Reference)
[4] = 400 mg single dose (A4), Fed, High-fat
[5] = 400 mg single dose (A4), Fed, Low-fat
[6] = 800 mg single dose (A5), Fed, Low-fat
[7] = 800 mg, low-fat fed state vs fasted
[8] = Table 3, 4th section, Low-fat (Test) vs 400 mg Fasted (Reference), n = 6
[9] = high-fat fed state from the fasted state

Cn1cc(-c2cn(-c3ccc(OC(F)(F)F)cc3)c(=O)c3ncn(C)c23)cn1 [Compound I]
Test/Reference ratio of LS means, AUC0-t [1]: 149.0% | Test/Reference ratio of LS means, AUC0-∞ [1]: 145.8% | Test/Reference ratio of LS means, Cmax [1]: 168.9% | Test/Reference ratio of LS means, AUC0-t [2]: 108.7% | Test/Reference ratio of LS means, AUC0-∞ [2]: 108.2% | Test/Reference ratio of LS means, Cmax [2]: 102.7% | Test/Reference ratio of LS means, AUC0-t [3]: 137.1% | Test/Reference ratio of LS means, AUC0-∞ [3]: 134.7% | Test/Reference ratio of LS means, Cmax [3]: 164.4% | AUC0-t (norm) [4]: 14000 (hr*ng/mL)/(mg/kg) | AUC0-∞ (norm) [4]: 14100 (hr*ng/mL)/(mg/kg) | CL/F [4]: 83.0 mL/min | CL/F(norm) [4]: 1.19 (mL/min)/kg | Cmax (norm) [4]: 1330 ng/mL/mg/kg | λZ [4]: 0.0861 h⁻¹ | % AUCextrap [4]: 0.213% | AUC0-t (norm) [5]: 12900 (hr*ng/mL)/(mg/kg) | AUC0-∞ (norm) [5]: 13000 (hr*ng/mL)/(mg/kg) | CL/F [5]: 89.8 mL/min | CL/F(norm) [5]: 1.28 (mL/min)/kg | Cmax (norm) [5]: 1300 ng/mL/mg/kg | λZ [5]: 0.0852 h⁻¹ | % AUCextrap [5]: 0.691% | AUC0-t (norm) [6]: 14300 (hr*ng/mL)/(mg/kg) | AUC0-∞ (norm) [6]: 14400 (hr*ng/mL)/(mg/kg) | CL/F [6]: 83.3 mL/min | CL/F(norm) [6]: 1.16 (mL/min)/kg | Cmax (norm) [6]: 1200 ng/mL/mg/kg | λZ [6]: 0.0793 h⁻¹ | % AUCextrap [6]: 0.395% | Ratio of fed to fasted, AUC0-t [7]: 214.0% | Ratio of fed to fasted, AUC0-∞ [7]: 203.3% | Ratio of fed to fasted, Cmax [7]: 225.5% | Test/Reference ratio of LS means, AUC0-t [8]: 214.0% | Test/Reference ratio of LS means, AUC0-∞ [8]: 203.3% | Test/Reference ratio of LS means, Cmax [8]: 225.5% | Food effect on bioavailability (administration with food (high fat or low fat meal)): positive food effect | Increase in AUC0-t [9]: 49.0% | Increase in AUC0-∞ [9]: 45.8% | Increase in Cmax [9]: 68.9% | Tmax (400 mg, 400 mg single dose (A4), Fed, High-fat, median, read-out: tmax): 3.5 h | AUC(0-t) (400 mg, 400 mg single dose (A4), Fed, High-fat, read-out: AUC0-t): 80.2 µg·h/mL | AUC(0-inf) (400 mg, 400 mg single dose (A4), Fed, High-fat, read-out: AUC0-∞): 80.3 µg·h/mL | Cmax (400 mg, 400 mg single dose (A4), Fed, High-fat, read-out: Cmax): 7.62 µg/mL | Vd/F (400 mg, 400 mg single dose (A4), Fed, High-fat, read-out: Vz/F): 57.8 L | Vd/F (400 mg, 400 mg single dose (A4), Fed, High-fat, read-out: Vz/F(norm)): 0.826 L/kg | half-life (400 mg, 400 mg single dose (A4), Fed, High-fat, read-out: t1/2 (converted)): 8.05 h | Tmax (400 mg, 400 mg single dose (A4), Fed, Low-fat, median, read-out: tmax): 2.5 h | AUC(0-t) (400 mg, 400 mg single dose (A4), Fed, Low-fat, read-out: AUC0-t): 73.7 µg·h/mL | AUC(0-inf) (400 mg, 400 mg single dose (A4), Fed, Low-fat, read-out: AUC0-∞): 74.2 µg·h/mL | Cmax (400 mg, 400 mg single dose (A4), Fed, Low-fat, read-out: Cmax): 7.42 µg/mL | Vd/F (400 mg, 400 mg single dose (A4), Fed, Low-fat, read-out: Vz/F): 63.3 L | Vd/F (400 mg, 400 mg single dose (A4), Fed, Low-fat, read-out: Vz/F(norm)): 0.904 L/kg | half-life (400 mg, 400 mg single dose (A4), Fed, Low-fat, read-out: t1/2 (converted)): 7.52 h | AUC(0-t) (400 mg, Table 3, 4th section, 400 mg Compound I Fasted, n = 6, read-out: LS Means AUC0-t (Reference)): 74.5 µg·h/mL | AUC(0-inf) (400 mg, Table 3, 4th section, 400 mg Compound I Fasted, n = 6, read-out: LS Means AUC0-∞ (Reference)): 78.7 µg·h/mL | Cmax (400 mg, Table 3, 4th section, 400 mg Compound I Fasted, n = 6, read-out: LS Means Cmax (Reference)): 5.91 µg/mL | Cmax (400 mg, Table 3, 4th section, 400 mg Compound I Fed, Low-fat, n = 6, read-out: LS Means Cmax (Test)): 13.3 µg/mL | AUC(0-t) (400 mg, Table 3, 4th section, head as printed:, n = 6, read-out: LS Means AUC0-t (Test)): 159 µg·h/mL | AUC(0-inf) (400 mg, Table 3, 4th section, head as printed:, n = 6, read-out: LS Means AUC0-∞ (Test)): 160 µg·h/mL | Tmax (400 mg, high-fat fed state, read-out: tmax values, range): 1.5 to 6 h | Tmax (800 mg, 800 mg single dose (A5), Fed, Low-fat, median, read-out: tmax): 3 h | AUC(0-t) (800 mg, 800 mg single dose (A5), Fed, Low-fat, read-out: AUC0-t): 159 µg·h/mL | AUC(0-inf) (800 mg, 800 mg single dose (A5), Fed, Low-fat, read-out: AUC0-∞): 160 µg·h/mL | Cmax (800 mg, 800 mg single dose (A5), Fed, Low-fat, read-out: Cmax): 13.3 µg/mL | Vd/F (800 mg, 800 mg single dose (A5), Fed, Low-fat, read-out: Vz/F): 63 L | Vd/F (800 mg, 800 mg single dose (A5), Fed, Low-fat, read-out: Vz/F(norm)): 0.876 L/kg | half-life (800 mg, 800 mg single dose (A5), Fed, Low-fat, read-out: t1/2 (converted)): 8.74 h | half-life (800 mg, 400 and 800 mg, high- and low-fat states, read-out: Geometric mean t1/2, range): 7.5 to 8.7 h | Tmax (low-fat fed state, read-out: tmax values, range): 1 to 4 h | Increase in AUC0-t (low-fat fed state (vs fasted)): 37.1% | Increase in AUC0-∞ (low-fat fed state (vs fasted)): 34.7% | Increase in Cmax (low-fat fed state (vs fasted)): 64.4%
